Test results taken from article PMC4245550, “Exploring the Chemodiversity and Biological Activities of the Secondary Metabolites from the Marine Fungus Neosartorya pseudofischeri” (Marine Drugs, 2014).
In brackets after ≈: the same amount, converted by molar mass. Like-named read-outs stand apart in the source and are kept apart here.

Assays:
[1] = test system: human colon cancer cell line HCT-116; assay: Cytotoxicity, MTS assay
[2] = test system: Methicillin-resistant staphylococcus aureus (R3708); assay: Antibacterial activity, broth dilution method (Mueller–Hinton broth), MIC
[3] = test system: Escherichia coli (ATCC25922); assay: as above
[4] = test system: Staphylococcus aureus (ATCC29213); assay: as above
[5] = test system: Staphylococcus aureus (ATCC29213), Methicillin-resistant staphylococcus aureus (R3708) and Escherichia coli (ATCC25922); assay: Antibacterial activity against three multidrug-resistant bacteria, broth dilution (summary statements)
[6] = test system: human embryonic kidney (HEK) 293 cell line; assay: Cytotoxicity, MTS assay
[7] = ATCC25922|ATCC29213, read-out: MIC values ranging over the three bacteria

Molecule	IC50 ([1]; Homo sapiens, HCT-116, 72 h) [µM]	MIC [2] [µM]	MIC [3] [µM]	MIC [4] [µM]	MIC [5] [µg/mL]	IC50 ([6]; Homo sapiens, HEK293, 72 h) [µM]	other results
O=c1[nH]cc(F)c(=O)[nH]1 [5-Fluorouracil, reference compound]	2.04 ± 0.22						
CC1(C)S[C@@H]2[C@H](NC(=O)[C@H](N)c3ccccc3)C(=O)N2[C@H]1C(=O)O [Ampicillin sodium, reference compound]		129	6.73	8.07			
COC1(CO)C(=O)n2c(cc3ccccc32)C(=O)N1C (stereo not drawn) [Compound 2, 1,2,3,4-tetrahydro-3-methoxyl-3-hydroxylmethyl-2-methyl-1,4-dioxopyrazino[1,2-a]indole]					> 256		
CC1C(=O)n2c(cc3ccccc32)C(=O)N1C (stereo not drawn) [Compound 3, 1,2,3,4-tetrahydro-2,3-dimethyl-1,4-dioxopyrazino[1,2-a]indole]					> 256		
C=c1c(=O)n2c(cc3ccccc32)c(=O)n1C [Compound 4, 1,2,3,4-tetrahydro-2-methyl-3-methylene-1,4-dioxopyrazino[1,2-a]indole]	10.3 ± 1.41	70.7 (≈ 16 µg/mL)	> 1130	283 (≈ 64 µg/mL)		30.1 ± 0.9	
CN1C(=O)C(=O)n2c(cc3ccccc32)C1=O [Compound 5, 1,2,3,4-tetrahydro-2-methyl-1,3,4-trioxopyrazino[1,2-a]indole]	> 50				> 256	> 50	
CNC(=O)c1cc2ccccc2[nH]1 [Compound 6, N-methyl-1H-indole-2-carboxamide]					> 256		
CN1C(=O)[C@]23CC4=CC=C[C@H](O)[C@H]4N2C(=O)[C@@]1(CO)SS3 [Compound 7, gliotoxin]	1.24 ± 0.38	1.53 (≈ 0.499 µg/mL)	24.5 (≈ 8.01 µg/mL)	12.2 (≈ 3.98 µg/mL)		1.58 ± 0.03	MIC [5, 7]: 1.52 to 97.6 µM
CC(=O)OC1C=CC=C2CC34SSC(CO)(C(=O)N3C21)N(C)C4=O (stereo not drawn) [Compound 8, acetylgliotoxin]	0.89 ± 0.04	21.7 (≈ 8.01 µg/mL)	> 696	86.9 (≈ 32 µg/mL)		4.49 ± 0.24	
CN1C(=O)C2(S)CC3=CC=CC(O)C3N2C(=O)C1(S)CO (stereo not drawn) [Compound 9, reduced gliotoxin]	0.43 ± 0.04	1.52 (≈ 0.499 µg/mL)	97.6 (≈ 32 µg/mL)	48.8 (≈ 16 µg/mL)		1.26 ± 0.04	MIC [5, 7]: 1.52 to 97.6 µM
CSC1(CO)C(=O)N2C3C(=CC=CC3OC(C)=O)CC2(SC)C(=O)N1C (stereo not drawn) [Compound 10, 6-acetylbis(methylthio)gliotoxin]	> 50				> 256	> 50	
CSC1(CO)C(=O)N2c3ccccc3CC2(SC)C(=O)N1C (stereo not drawn) [Compound 12, didehydrobisdethiobis(methylthio)gliotoxin]	> 50				> 256	> 50	
CSC1(CO)NC(=O)C(Cc2ccccc2)(SC)NC1=O (stereo not drawn) [Compound 13, bis-N-norgliovictin]	> 50				> 256	> 50	
CN[C@H](CC(C)C)C(=O)N[C@H]1C(=O)N[C@@H](CC(N)=O)C(=O)N[C@H]2C(=O)N[C@H]3C(=O)N[C@H](C(=O)N[C@H](C(=O)O)c4cc(O)cc(O)c4-c4cc3ccc4O)[C@H](O)c3ccc(c(Cl)c3)Oc3cc2cc(c3O[C@@H]2O[C@H](CO)[C@@H](O)[C@H](O)[C@H]2O[C@H]2C[C@](C)(N)[C@H](O)[C@H](C)O2)Oc2ccc(cc2Cl)[C@H]1O [Vancomycin, reference compound]		2.01 (≈ 2.91 µg/mL)		0.84 (≈ 1.22 µg/mL)			
bisdethiobis(methylthio)gliotoxin [Compound 11]							IC50 ([1]; HCT-116 cells, 72 h, MTS, n = 5): 8.59 ± 0.96 µM; IC50 ([6]; 293 cells, 72 h, MTS, n = 5): 16.4 ± 0.38 µM
